Measurements: patent publication US9156840B2, “D2 antagonists, methods of synthesis and methods of use” (ALTOS THERAPEUTICS, LLC, priority 2010, dated 2015)
Structures can show the parent of a compound that is named as a salt.

What follows are molecules tested against T1, human D2 receptor (Homo sapiens, UniProt P14416) (assay: D2 receptor radioligand binding assay (membranes of HEK-293 cells expressing human D2 receptor)). Settings: radioligand displacement, HEK293 membranes, 37° C. for 120 minutes; read-out: Affinity Score (IC50 values for D2 on a scale of 1 through 5).
T1 construct: expressed in transfected cells; cDNA from Origene clones TC308892 and SC123573
T1 sequence (P14416 whole entry): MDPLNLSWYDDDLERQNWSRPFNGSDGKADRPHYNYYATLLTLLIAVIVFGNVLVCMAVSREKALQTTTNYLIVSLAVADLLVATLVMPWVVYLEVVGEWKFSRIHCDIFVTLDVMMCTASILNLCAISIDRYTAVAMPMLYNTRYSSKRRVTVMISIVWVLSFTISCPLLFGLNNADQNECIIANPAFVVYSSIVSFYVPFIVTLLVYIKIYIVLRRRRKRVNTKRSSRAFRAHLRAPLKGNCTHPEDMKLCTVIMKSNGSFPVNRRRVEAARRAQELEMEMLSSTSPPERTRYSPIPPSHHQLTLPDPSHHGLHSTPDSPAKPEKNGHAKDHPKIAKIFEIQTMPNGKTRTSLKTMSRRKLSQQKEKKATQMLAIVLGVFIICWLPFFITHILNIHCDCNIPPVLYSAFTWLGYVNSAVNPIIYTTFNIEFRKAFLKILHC
Procedure: Affinity for the dopamine D2 receptor was tested in vitro, and the following describes the construction of cell lines expressing human D2 receptor, as well as the binding assays themselves.
Establishment of Stable Cell Lines Expressing Either the Cloned Human D2S Receptor or the Cloned Human D2L Receptor.
The human D2 receptor exists in two isoforms: the short form (D2S) and the long form (D2L). The two isoforms are generated from the D2 gene by alternative splicing and the D2L isoform differs from the D2S isoform by the addition of 29 amino acids in the third intracellular loop of its protein structure.
To establish HEK-293 cell lines stably expressing either the human D2S or the human D2L, the human dopamine D2S receptor (Genebank Accession Number NM_016574) and human dopamine D2L receptor (Genebank Accession Number BC021195) were amplified by PCR from Origene cDNA clones TC308892 and SC123573 (respectively) using the following primers: 5-[…]-3 (SEQ ID NO: 1) sense and 5-[…]-3 (SEQ ID NO: 2) antisense. The resulting PCR products were respectively cloned into pENTR-D-TOPO (Invitrogen), sequenced and then transferred into the pCDNA3.2-DEST (Invitrogen) using the LR-clonasc gateway reaction (Invitrogen) and sequenced again to verify the genes sequence.
HEK293 cells were maintained in Eagles Minimum Essential Medium (MEM) supplemented with 0.292 g/L L-glutamine and 10% (v/v) fetal calf serum at 37° C. in a 5% CO2 humidified atmosphere. Cells were grown to 60-80% confluency in 10 cm dishes before transfection. Transfection of the D2S and D2L containing pcDNA3.2-DEST into HEK-293 cells were performed using Lipofectamine 2000 (Invitrogen). Transfected cells were seeded and diluted 2 days after transfection and maintained in culture medium supplemented with 500 μg/mL G418. The HEK-293 cell line expressing the huD2S (R2D2S) and the huD2L (R2D2L) were maintained in culture medium supplemented with 500 μg/mL G418.
D2 Receptor Binding Assays
HEK293 cells were in Eagles Minimum Essential Medium (MEM) supplemented with 10% FBS, 0.292 g/liter L-glutamine, 10^5 units/liter penicillin, 100 mg/liter streptomycin and […] Geneticin at 37° C. in a 5% CO2 humidified atmosphere. Cells were grown to 80-90% confluence and harvested with cell stripper (Cellgro #25-056-CI). Cells were then washed with PBS (2×). Cells were either pelleted and frozen at −80° C. or membranes were prepared immediately.
Cells from pellet were resuspended in homogenization buffer (15 mM Tris*HCl, 2 mM MgCl2*6H2O, 0.3 mM EDTA, 1 mM EGTA pH 7.4 @ 4° C.). Cells were then homogenized using a Polytron (PT 1200) homogenizer at setting 6 for 10 seconds. Crude membranes were pelleted at 39, 412 g for 15 min, at 4° C. (2×) in a Sorval RC6 plus centrifuge. Membranes were finally resuspended in resuspension buffer (50 mM Tris*HCl, 120 mM NaCl, 10 mM MgCl2*6H2O, 1 mM EDTA pH 7.4 @ 4° C.) and sonicated (Fisher Sonic Dismembrator) at setting 5 for 10 seconds.
The radioligand binding assays were conducted in microtiter plates (Costar #3961) with a final volume of 1.0 mL.
The membranes were thawed at room temperature, briefly homogenized using a sonicator, diluted in assay buffer and kept on wet ice until being added to the assay plate. Membranes were diluted to a final target tissue concentration of 10 μg protein per well. The specific binding should be greater than 80% with less than 10% total radioligand bound to minimize ligand depletion errors.
First compound of the invention (50 μL) or assay buffer (50 mM Tris*HCl, 120 mM NaCl, 5 mM MgCl2*6H2O, 1 mM EDTA, 5 mM KCl pH 7.4 @37° C. plus 0.025% BSA), buffer (700 μL) and then membrane (200 μL) were added to the deep well assay plate, which was then shaken for 10 minutes. Finally, radioligand (50 μL) was added.
The assay plates were incubated at 37° C. for 120 minutes.
The assay plate were filtered over 0.3% PEI pretreated glass fiber filtermats (GF/C) using a Packard Filtermate cell harvester. […]
Work on `O=C(O)c1cccc(CN2CN(c3ccccc3)C3(CCN(CC4COc5ccccc5O4)CC3)C2=O)c1` (centres unmarked) [Compound 76, 3-((8-((2,3-Dihydrobenzo[b][1,4]dioxin-2-yl)methyl)-4-oxo-1-phenyl-1,3,8-triazaspiro[4.5]decan-3-yl)methyl)benzoic acid] yielded an IC50 of less than 10 nM.
`O=C(O)c1cccc(CN2CN(c3ccccc3)C3(CCN(CCCn4nnc5ccccc54)CC3)C2=O)c1` [Compound 85, 3-((8-(3-(1H-Benzo[d][1,2,3]triazol-1-yl)propyl)-4-oxo-1-phenyl-1,3,8-triazaspiro[4.5]decan-3-yl)methyl)benzoic acid] showed an IC50 of less than 10 nM.
`O=C(O)c1cccc(CN2CN(c3ccccc3)C3(CCN(CCCN4C(=O)Cc5ccccc54)CC3)C2=O)c1` [Compound 89, 3-((4-oxo-8-(3-(2-oxoindolin-1-yl)propyl)-1-phenyl-1,3,8-triazaspiro[4.5]decan-3-yl)methyl)benzoic acid, hydrochloride] gave an IC50 of less than 10 nM.
`O=C(O)c1cccc(CN2CN(c3ccccc3)C3(CCN(CCCn4c(=O)[nH]c5ccc(Cl)cc54)CC3)C2=O)c1` [Compound 100, 3-((8-(3-(6-Chloro-2-oxo-2,3-dihydro-1H-benzo[d]imidazol-1-yl)propyl)-4-oxo-1-phenyl-1,3,8-triazaspiro[4.5]decan-3-yl)methyl)benzoic acid] gave an IC50 of less than 10 nM.
With `CC(C)(Oc1ccc(CN2CN(c3ccccc3)C3(CCN(CCCn4c(=O)[nH]c5ccccc54)CC3)C2=O)cc1)C(=O)O` [Compound 102, 2-Methyl-2-(4-((4-oxo-8-(3-(2-oxo-2,3-dihydro-1H-benzo[d]imidazol-1-yl)propyl)-1-phenyl-1,3,8-triazaspiro[4.5]decan-3-yl)methyl)phenoxy)propanoic acid] the IC50 was less than 10 nM.
With `O=C(O)c1cccc(CN2CN(c3ccccc3)C3(CCN(CCCn4c(=O)n(C5CC5)c5ccccc54)CC3)C2=O)c1` [Compound 120, 3-((8-(3-(3-Cyclopropyl-2-oxo-2,3-dihydro-1H-benzo[d]imidazol-1-yl)propyl)-4-oxo-1-phenyl-1,3,8-triazaspiro[4.5]decan-3-yl)methyl)benzoic acid] the IC50 was less than 10 nM.
Work on `CC1(C)C(=O)N(CCCN2CCC3(CC2)C(=O)N(Cc2cccc(C(=O)O)c2)CN3c2ccc(F)cc2)c2ccccc21` [Compound 123, 3-((8-(3-(3,3-Dimethyl-2-oxoindolin-1-yl)propyl)-1-(4-fluorophenyl)-4-oxo-1,3,8-triazaspiro[4.5]decan-3-yl)methyl)benzoic acid] yielded an IC50 of less than 10 nM.
`O=C(O)c1cccc(CN2CN(c3ccccc3)C3(CCN(CCCN4C(=O)C5(CC5)c5ccccc54)CC3)C2=O)c1` [Compound 130, 3-((4-oxo-8-(3-(2′-oxospiro[cyclopropane-1,3′-indoline]-1′-yl)propyl)-1-phenyl-1,3,8-triazaspiro[4.5]decan-3-yl)methyl)benzoic acid, hydrochloride salt] gave an IC50 of less than 10 nM.
With `CC1(C)C(=O)N(CCCN2CCC3(CC2)C(=O)N(Cc2ccccc2C(=O)O)CN3c2ccccc2)c2ccccc21` [Compound 137, 2-((8-(3-(3,3-Dimethyl-2-oxoindolin-1-yl)propyl)-4-oxo-1-phenyl-1,3,8-triazaspiro[4.5]decan-3-yl)methyl)benzoic acid] the IC50 was less than 10 nM.
`O=C(O)c1cccc(CN2CN(c3ccc(F)cc3)C3(CCN(CCCN4C(=O)C5(CC5)c5ccccc54)CC3)C2=O)c1` [Compound 138, 3-((1-(4-Fluorophenyl)-4-oxo-8-(3-(2′-oxospiro[cyclopropane-1,3′-indoline]-1′-yl)propyl)-1,3,8-triazaspiro[4.5]decan-3-yl)methyl)benzoic acid] showed an IC50 of less than 10 nM.
`O=C(O)c1cccc(CN2CN(c3ccccc3)C3(CCN(CCCC(=O)c4cccs4)CC3)C2=O)c1` [Compound 143, 3-((4-oxo-8-(4-oxo-4-(thiophen-2-yl)butyl)-1-phenyl-1,3,8-triazaspiro[4.5]decan-3-yl)methyl)benzoic acid, hydrochloride] gave an IC50 of less than 10 nM.
